Where no end group is shown, it is not given here.
Experiments:
E. coli ATCC 25922 = format: cell-based, Escherichia coli
Experimental: (§2) Antifungal activity was evaluated against C. albicans (ATCC 90028), C. parapsilosis (ATCC 22019) and S. cerevisiae.
(§3) Antimicrobial activity was assessed with a liquid growth inhibition assay performed according to a previously described protocol [14] using the Clinical and Laboratory Standards Institute (CLSI) guidelines. Briefly, in 96-well microtitration plates, mid-log-phase bacteria diluted to 10^6 CFU/mL in Mueller–Hinton (MH) broth were added to different concentrations of synthetic temporin-SHe (1–200 µM, final concentrations) and incubated at 37 °C for 18–20 h, under shaking (150 rpm). For E. faecalis, L. ivanovii and yeasts/fungi, 10^6 CFU/mL suspensions were prepared in LB broth, brain heart infusion (BHI) medium and Yeast Peptone Dextrose (YPD) medium, respectively, and incubation was performed at 30 °C for yeasts/fungi. […] MIC values represent the average of three independent experiments, each performed in triplicate with negative (no peptide) and positive (formaldehyde 0.7%) controls.

E. coli ATCC 35218 = format: cell-based, Escherichia coli
Experimental: as §2, §3

E. coli ML-35p = format: cell-based, Escherichia coli; conditions: liquid growth inhibition (CLSI), 10^6 CFU/mL in MH broth, 37 °C, 18–20 h, OD 630 nm; mean of three independent experiments in triplicate
Experimental: as §2, §3

A. baumannii ATCC 19606 = format: cell-based, Acinetobacter baumannii
Experimental: as §3

K. pneumoniae ATCC 13883 = format: cell-based, Klebsiella pneumoniae
Experimental: as §3

S. aureus ATCC 25923 [1] = format: cell-based, Staphylococcus aureus
Experimental: as §3

S. aureus ST1065 [2] = format: cell-based, Staphylococcus aureus
C. albicans ATCC 90028 = format: cell-based, Candida albicans
Experimental: as §2, §3

[3] = system: C. parapsilosis ATCC 22019; format: cell-based, Candida parapsilosis
Experimental: as §2, §3

S. cerevisiae = format: cell-based, Saccharomyces cerevisiae
Experimental: as §2, §3

[4] = system: L. infantum promastigotes (strain MHOM/MA/67/ITMAP-263); format: cell-based, Leishmania infantum; conditions: 72 h, 26 °C
Experimental: (§1) Antileishmanial activity of temporin-SHe was analyzed by a luminescence-based growth inhibition method using Leishmania promastigotes transfected with the vector pGMαNEOαLUC containing the gene LUC that codes for the firefly luciferase, cultured at 26 °C in SDM-79 medium supplemented with 10% fetal calf serum (Gibco), as previously described. Mid-log-phase promastigotes (1.25 × 10^6 cells/mL) were added in 96-well plates containing different concentrations of synthetic temporin-SHe (3.125–50 µM, final concentrations), and incubated 72 h at 26 °C. […] IC50 was determined with GraphPad Prism® 6.0 software (GraphPad Software, La Jolla, CA, USA) using a sigmoidal dose–response curve fitting equation.

[5] = system: L. braziliensis promastigotes (strain MHOM/BR/75/M2904); format: cell-based, Leishmania braziliensis; conditions: 72 h, 26 °C
Experimental: as §1

S. aureus ATCC 25923 [6] = experiment: Membrane depolarization assay, DiSC3(5); format: cell-based, Staphylococcus aureus; conditions: peptide at 2-fold MIC; 10^7 cfu/mL in PBS, 1 µM DiSC3(5), 37 °C, 20 min recording; representative of three assays
Experimental: The depolarization of S. aureus ATCC 25923 cytoplasmic membrane induced by temporin-SHe and temporin-SHd was investigated using the membrane potential-sensitive cyanine dye DiSC3(5) (3,3′-dipropylthiadicarbocyanine iodide), as detailed in [29]. An amount of 700 µL of bacteria resuspended in PBS (10^7 cfu/mL) containing 1 μM DiSC3(5) were preincubated in the dark during 10 min at 37 °C, and then 100 µL of 1 mM KCl were added to the mixture. Fluorescence (λex = 622 nm; λem = 670 nm) was recorded during 20 min at 37 °C (Varian Cary Eclipse fluorescence spectrophotometer) after addition of the peptide (200 µL, final concentration: 2-fold above the MIC). Three independent experiments were performed and the results correspond to a representative experiment with negative (PBS) and positive (melittin) controls.

S. aureus ST1065 [7] = experiment: Time-killing assay; format: cell-based, Staphylococcus aureus; conditions: two-fold MIC (6.25 µM temporin-SHe), 10^6 cfu/mL in PBS, plate counting
Experimental: Aliquots were withdrawn at different times and spread onto LB agar plates for cell counting after overnight incubation at 37 °C. Controls corresponding to the bacterial suspensions without peptide were also run. Two independent experiments were performed in triplicate. Results were expressed as the mean ± S.D. of a representative experiment.

E. coli strains = format: cell-based, Escherichia coli
Experimental: as §2, §3

[8] = luciferase-expressing promastigotes 1.25 × 10^6 cells/mL, Steady-Glo, mean of three independent experiments in triplicate

FLPALAGIAGLLGKIF-NH2 [Temporin-SHe] was tested, and the MIC (E. coli ATCC 25922) was 25 µM, the MIC (E. coli ATCC 35218) was 50 µM and the MIC (E. coli ML-35p) was 50 µM. For the same substance, the MIC (A. baumannii ATCC 19606) was 25 µM, the MIC (K. pneumoniae ATCC 13883) was 100 µM and the MIC (S. aureus ATCC 25923 [1]) was 3.12 µM. It also gave an MIC (S. aureus ST1065 [2]) of 3.12 µM, an MIC (C. albicans ATCC 90028) greater than 100 µM and an MIC [3] of 50 µM. For the same substance, the MIC (S. cerevisiae) was 12.5 µM, the IC50 [4, 8] was 4.6 µM and the “inhibition of L. infantum growth” value ([4]; peptide 3.12 µM, promastigotes, mean of three independent assays in triplicates) was 42%. For the same substance, the IC50 [5, 8] was 10.5 µM, the “Leishmania growth inhibition (L. braziliensis)” value ([5]; peptide 12.5 µM, promastigotes, mean of three independent assays in triplicates) was 87% and the “membrane depolarization (DiSC3(5) fluorescence increase)” value (S. aureus ATCC 25923 [6]) was “instantaneous”. The “time to complete killing” value (S. aureus ST1065 [7]) was no more than 5 min and the MIC range (E. coli strains) was 25 to 50 µM.

Source: paper PMC7555312, “Functional Characterization of Temporin-SHe, a New Broad-Spectrum Antibacterial and Leishmanicidal Temporin-SH Paralog from the Sahara Frog (Pelophylax saharicus)” (International Journal of Molecular Sciences, 2020)
